Test results: ChEMBL document CHEMBL3431459, “Roche carnitine palmitoyltransferase modulator screening data (supplementary data associated with the publication CHEMBL2216752)”
Values after ≈ are worked out from the molar mass of the structure shown.

Experiments:
[1] = biological target: T1, Carnitine O-palmitoyltransferase 1, muscle isoform (Homo sapiens, UniProt Q92523); assay: SUPPLEMENTARY: Inhibition of Carnitine palmitoyltransferase 1, muscle isoform; design: species or system Muscle tissue
T1 sequence (Q92523 whole entry): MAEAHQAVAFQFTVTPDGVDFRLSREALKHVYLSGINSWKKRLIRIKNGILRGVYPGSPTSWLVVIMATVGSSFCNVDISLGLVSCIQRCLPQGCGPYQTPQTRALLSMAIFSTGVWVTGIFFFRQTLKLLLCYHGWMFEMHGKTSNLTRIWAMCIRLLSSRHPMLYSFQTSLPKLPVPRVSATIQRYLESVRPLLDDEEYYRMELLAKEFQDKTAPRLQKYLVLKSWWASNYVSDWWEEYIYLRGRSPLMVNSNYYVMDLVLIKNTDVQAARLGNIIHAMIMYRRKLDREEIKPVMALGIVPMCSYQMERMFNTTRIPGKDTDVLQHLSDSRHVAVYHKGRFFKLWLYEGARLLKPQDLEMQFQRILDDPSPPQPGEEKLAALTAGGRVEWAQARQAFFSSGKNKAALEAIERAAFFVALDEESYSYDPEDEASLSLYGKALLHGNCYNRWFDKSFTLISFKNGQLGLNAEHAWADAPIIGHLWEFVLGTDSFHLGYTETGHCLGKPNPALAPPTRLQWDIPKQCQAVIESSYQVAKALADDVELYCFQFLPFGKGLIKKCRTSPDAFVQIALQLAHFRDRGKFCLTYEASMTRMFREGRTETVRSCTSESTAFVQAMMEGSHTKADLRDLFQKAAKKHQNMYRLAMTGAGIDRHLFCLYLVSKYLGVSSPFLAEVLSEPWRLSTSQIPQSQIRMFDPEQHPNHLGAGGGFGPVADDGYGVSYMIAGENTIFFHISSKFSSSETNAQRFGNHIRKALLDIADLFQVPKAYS

[2] = biological target: T2, Carnitine O-palmitoyltransferase 1, liver isoform (Rattus norvegicus, UniProt P32198); assay: (§1) SUPPLEMENTARY: Inhibition of Carnitine palmitoyltransferase 1, liver isoform
T2 sequence (P32198 whole entry): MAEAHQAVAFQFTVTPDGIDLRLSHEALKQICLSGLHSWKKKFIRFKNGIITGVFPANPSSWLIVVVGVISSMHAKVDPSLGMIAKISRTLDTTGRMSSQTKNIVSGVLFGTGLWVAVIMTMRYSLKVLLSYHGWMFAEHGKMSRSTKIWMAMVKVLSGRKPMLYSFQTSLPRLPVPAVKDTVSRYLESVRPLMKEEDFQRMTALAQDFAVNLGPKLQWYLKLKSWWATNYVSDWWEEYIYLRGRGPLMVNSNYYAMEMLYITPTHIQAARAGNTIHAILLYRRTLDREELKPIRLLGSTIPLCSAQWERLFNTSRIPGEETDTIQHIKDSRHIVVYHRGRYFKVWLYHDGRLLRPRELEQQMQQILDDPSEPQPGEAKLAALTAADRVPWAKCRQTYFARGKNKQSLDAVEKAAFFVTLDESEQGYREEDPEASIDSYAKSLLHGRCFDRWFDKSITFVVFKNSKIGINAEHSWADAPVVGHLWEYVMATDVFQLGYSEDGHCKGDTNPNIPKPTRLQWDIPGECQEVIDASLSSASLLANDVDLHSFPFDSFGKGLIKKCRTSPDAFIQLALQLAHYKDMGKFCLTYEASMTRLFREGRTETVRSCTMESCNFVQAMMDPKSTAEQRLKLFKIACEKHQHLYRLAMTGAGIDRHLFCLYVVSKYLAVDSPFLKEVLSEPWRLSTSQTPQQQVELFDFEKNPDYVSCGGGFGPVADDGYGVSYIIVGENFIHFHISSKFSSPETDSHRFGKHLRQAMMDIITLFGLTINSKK

[3] = biological target: T3, Carnitine O-palmitoyltransferase 1, liver isoform (Homo sapiens, UniProt P50416); assay: as §1
T3 sequence (P50416 whole entry): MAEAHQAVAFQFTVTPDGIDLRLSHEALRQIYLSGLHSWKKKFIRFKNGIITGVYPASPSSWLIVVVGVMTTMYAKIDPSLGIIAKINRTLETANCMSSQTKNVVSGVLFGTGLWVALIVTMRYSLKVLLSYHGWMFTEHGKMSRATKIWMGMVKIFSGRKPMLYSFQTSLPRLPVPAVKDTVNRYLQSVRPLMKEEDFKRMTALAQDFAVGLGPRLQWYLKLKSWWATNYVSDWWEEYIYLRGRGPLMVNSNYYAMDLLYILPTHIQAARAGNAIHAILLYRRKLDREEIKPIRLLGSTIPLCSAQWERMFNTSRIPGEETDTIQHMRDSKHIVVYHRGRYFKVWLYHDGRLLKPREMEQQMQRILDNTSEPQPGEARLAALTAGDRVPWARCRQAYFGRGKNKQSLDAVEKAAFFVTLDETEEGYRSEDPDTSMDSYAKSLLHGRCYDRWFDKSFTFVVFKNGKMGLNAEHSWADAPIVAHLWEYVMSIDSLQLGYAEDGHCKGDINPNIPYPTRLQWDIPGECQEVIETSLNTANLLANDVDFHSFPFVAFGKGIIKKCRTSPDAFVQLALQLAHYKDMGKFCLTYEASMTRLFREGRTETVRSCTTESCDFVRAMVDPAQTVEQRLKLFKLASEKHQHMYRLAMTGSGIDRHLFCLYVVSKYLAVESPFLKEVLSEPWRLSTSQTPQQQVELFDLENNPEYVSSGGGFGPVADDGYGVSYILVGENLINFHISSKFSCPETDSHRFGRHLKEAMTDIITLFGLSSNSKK

[4] = SUPPLEMENTARY: Lipophilicity (log D) Determination by high-throughput shake-flask; assay type: physicochemical; conditions: octanol/water
[5] = SUPPLEMENTARY: Lyophilisation Solubility Assay (LYSA); assay type: physicochemical; conditions: read-out: Kinetic_solubility
[6] = biological target: T4, Carnitine O-palmitoyltransferase 2, mitochondrial (Homo sapiens, UniProt P23786); assay: (§2) SUPPLEMENTARY: Inhibition of Carnitine palmitoyltransferase 2
T4 sequence (P23786 whole entry): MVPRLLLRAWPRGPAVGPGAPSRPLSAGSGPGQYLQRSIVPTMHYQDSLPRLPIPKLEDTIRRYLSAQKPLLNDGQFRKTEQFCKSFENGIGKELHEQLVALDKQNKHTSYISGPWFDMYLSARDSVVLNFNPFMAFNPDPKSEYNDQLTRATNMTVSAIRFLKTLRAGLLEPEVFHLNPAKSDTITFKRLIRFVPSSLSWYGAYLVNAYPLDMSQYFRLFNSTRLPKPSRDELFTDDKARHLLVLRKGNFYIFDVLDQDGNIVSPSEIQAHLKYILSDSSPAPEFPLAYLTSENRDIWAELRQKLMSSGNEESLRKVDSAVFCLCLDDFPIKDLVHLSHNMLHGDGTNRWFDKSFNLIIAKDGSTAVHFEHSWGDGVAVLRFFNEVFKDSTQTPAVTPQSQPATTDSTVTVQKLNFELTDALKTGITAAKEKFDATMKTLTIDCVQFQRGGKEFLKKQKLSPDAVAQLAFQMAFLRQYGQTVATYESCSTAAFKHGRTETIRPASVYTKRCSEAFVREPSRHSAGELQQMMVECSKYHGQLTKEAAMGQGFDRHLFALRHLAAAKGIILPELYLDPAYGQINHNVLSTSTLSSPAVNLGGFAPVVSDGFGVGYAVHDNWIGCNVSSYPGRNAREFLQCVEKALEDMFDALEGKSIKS

[7] = biological target: T5, Carnitine O-palmitoyltransferase 2, mitochondrial (Rattus norvegicus, UniProt P18886); assay: as §2
T5 sequence (P18886 whole entry): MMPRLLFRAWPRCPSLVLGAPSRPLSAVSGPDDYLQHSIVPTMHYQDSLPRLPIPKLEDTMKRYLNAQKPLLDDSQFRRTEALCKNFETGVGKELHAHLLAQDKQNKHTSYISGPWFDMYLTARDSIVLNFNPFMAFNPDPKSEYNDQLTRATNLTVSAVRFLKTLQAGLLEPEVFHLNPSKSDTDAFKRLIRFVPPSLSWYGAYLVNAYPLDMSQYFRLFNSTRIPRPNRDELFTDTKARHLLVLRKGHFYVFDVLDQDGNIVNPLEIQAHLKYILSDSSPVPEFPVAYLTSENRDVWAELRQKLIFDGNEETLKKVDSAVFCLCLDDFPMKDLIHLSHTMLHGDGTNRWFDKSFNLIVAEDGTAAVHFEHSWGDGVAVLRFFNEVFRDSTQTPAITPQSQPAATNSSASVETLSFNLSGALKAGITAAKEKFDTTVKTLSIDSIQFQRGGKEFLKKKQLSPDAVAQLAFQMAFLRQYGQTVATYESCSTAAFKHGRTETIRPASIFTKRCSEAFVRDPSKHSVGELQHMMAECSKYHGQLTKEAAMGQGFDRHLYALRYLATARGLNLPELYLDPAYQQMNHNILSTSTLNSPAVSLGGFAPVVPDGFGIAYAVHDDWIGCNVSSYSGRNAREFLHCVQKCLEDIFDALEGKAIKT

[8] = SUPPLEMENTARY: PAMPA permeability assay; assay type: physicochemical; conditions: read-out: Permeability

Row | SMILES | IC50 [1] | IC50 [2] | IC50 [3] | logD [4] | solubility kinetic [5] | IC50 [6] | IC50 [7] | Papp [8]
1 | CC(=O)Nc1cc(-c2nc([C@H]3CCCCN3C(=O)COc3ccccc3)no2)ccn1 | > 100 µM | 0.327 µM | 0.0509 µM | 2.54 | 0.113 mg/mL (≈ 268 µM) | > 100 µM | > 100 µM | 54 nm/s
2 | Cc1ncc(-c2noc([C@H]3CCCCN3C(=O)COc3ccccc3)n2)c(=O)[nH]1 | > 100 µM | 1.56 µM | 0.14 µM | 1.14 | > 0.505 mg/mL | > 100 µM | > 100 µM | 30.3 nm/s
3 | COc1ccc(Cl)cc1S(=O)(=O)Nc1cc(C(=O)Nc2ccccc2)ccc1/C=C/C(=O)O | 83.1 µM | 0.0798 µM | 0.136 µM | 0.36 | > 0.585 mg/mL | > 100 µM | > 100 µM | 10 nm/s
4 | O=C(O)c1ccc(NC(=O)c2ccc3c(c2)N(Cc2cccc(Cl)c2)C(=O)CS3(=O)=O)cc1 | 5.17 µM | 0.184 µM | 0.229 µM | 0.47 | 0.026 mg/mL (≈ 53.6 µM) | 68.5 µM | > 100 µM | 10.5 nm/s
5 | NC(=O)c1cccc(-c2n[nH]c([C@H]3CCCCN3C(=O)COc3ccccc3)n2)c1 | > 100 µM | 0.563 µM | 0.0931 µM | 2.16 | 0.161 mg/mL (≈ 397 µM) | > 100 µM | > 100 µM | 22.5 nm/s
6 | O=C1CN(c2cccc(-c3n[nH]c([C@H]4CCCCN4C(=O)COc4ccccc4)n3)c2)C(=O)N1 | 61.8 µM | 0.15 µM | 0.0968 µM | 2.16 | 0.054 mg/mL (≈ 117 µM) | 23.5 µM | 56.9 µM | 19.2 nm/s
7 | O=C(COc1ccccc1)N1CCCC[C@@H]1c1noc(-c2ccc(Cl)nc2)n1 | > 100 µM | 0.254 µM | 0.154 µM | 2.98 | 0.032 mg/mL (≈ 80.2 µM) | 38.2 µM | > 100 µM | 51.7 nm/s
8 | COc1ccc(Cl)cc1S(=O)(=O)N1CCOc2ccc(C(=O)Nc3ccc(C(=O)O)c(Cl)c3)cc21 | 3.58 µM | 0.1 µM | 0.248 µM | 0.12 | > 0.716 mg/mL | 5.13 µM | 21 µM | 14.5 nm/s
9 | CCOc1ccc(C(=O)Nc2ccc(C(=O)O)c(F)c2)cc1N(CCS(=O)O)S(=O)(=O)c1cc(Cl)ccc1OC | 27.7 µM | 0.14 µM | 0.146 µM | -1.31 | > 0.685 mg/mL | > 100 µM | > 100 µM | 0.7 nm/s

The next lines start with the values.

Row | IC50 [1] | IC50 [2] | IC50 [3] | logD [4] | solubility kinetic [5] | IC50 [6] | IC50 [7] | Papp [8] | SMILES
10 | 22.7 µM | 0.247 µM | 0.0912 µM | 3.29 | < 0.001 mg/mL | 6.09 µM | 21.7 µM | 4.9 nm/s | CC1(C)NC(=O)N(c2ccc(Cl)c(-c3nc([C@H]4CCCCN4C(=O)COc4ccccc4)no3)c2)C1=O
11 | 0.622 µM | 0.131 µM | 0.124 µM | 2.72 | 0.108 mg/mL (≈ 190 µM) | > 100 µM | > 100 µM | 35.8 nm/s | CCCN(c1cc(C(=O)Nc2nc(CC(=O)O)cs2)cc2c1OCO2)S(=O)(=O)c1cc(Cl)ccc1OC
12 | 0.75 µM | 0.0847 µM | 0.15 µM | 0.47 | 0.565 mg/mL (≈ 1060 µM) | > 100 µM | > 100 µM | 27.9 nm/s | COc1ccc(Cl)cc1S(=O)(=O)N1CCOc2c(F)cc(C(=O)Nc3ccc(CC(=O)O)cc3)cc21
13 | > 100 µM | 0.136 µM | 0.0491 µM | 2.9 | 0.018 mg/mL (≈ 43.3 µM) | 18.8 µM | 89.9 µM | 35.9 nm/s | O=C(COc1ccccc1)N1CCCC[C@@H]1c1noc(-c2cnnc3ccccc23)n1
